Test results as given in PubChem BioAssay AID1963833 (Molecular Pharmacology Branch, DTP, NCI, 2024).

Tested on: 883617-216-R-J1-PDC complex spheroid viability
Experiment: Anticancer human tumor 883617-216-R-J1-PDC patient-derived bladder carcinoma cell line growth inhibition [POLQ]
Details: for IC50: curve of first compound; for viability, T/C: stronger effect = lower value
How it was run: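 PDC + HUVEC + MSC complex spheroids; POLQ inhibitors ± partner drugs; top conc. at/near clinical Cmax, else 10 microM (SN-38 1 microM), half-log dilutions; 37 degrees C, 5% CO2.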

[1] = second compound 0.0316 µM, first compound 0.0316 µM
[2] = second compound 0.0316 µM, first compound 0.1 µM
[3] = second compound 0.0316 µM, first compound 0.316 µM
[4] = second compound 0.0316 µM, first compound 1 µM
[5] = second compound 0.0316 µM, first compound 3.16 µM
[6] = second compound 0.0316 µM, first compound 10 µM
[7] = second compound 0.1 µM, first compound 0.0316 µM
[8] = second compound 0.1 µM, first compound 0.1 µM
[9] = second compound 0.1 µM, first compound 0.316 µM
[10] = second compound 0.1 µM, first compound 1 µM
[11] = second compound 0.1 µM, first compound 3.16 µM
[12] = second compound 0.1 µM, first compound 10 µM
[13] = second compound 0.316 µM, first compound 0.0316 µM
[14] = second compound 0.316 µM, first compound 0.1 µM
[15] = second compound 0.316 µM, first compound 0.316 µM
[16] = second compound 0.316 µM, first compound 1 µM
[17] = second compound 0.316 µM, first compound 3.16 µM
[18] = second compound 0.316 µM, first compound 10 µM
[19] = second compound 1 µM, first compound 0.0316 µM
[20] = second compound 1 µM, first compound 0.1 µM
[21] = second compound 1 µM, first compound 0.316 µM
[22] = second compound 1 µM, first compound 1 µM
[23] = second compound 1 µM, first compound 3.16 µM
[24] = second compound 1 µM, first compound 10 µM
[25] = second compound 3.16 µM, first compound 0.0316 µM
[26] = second compound 3.16 µM, first compound 0.1 µM
[27] = second compound 3.16 µM, first compound 0.316 µM
[28] = second compound 3.16 µM, first compound 1 µM
[29] = second compound 3.16 µM, first compound 3.16 µM
[30] = second compound 3.16 µM, first compound 10 µM
[31] = second compound 10 µM, first compound 0.0316 µM
[32] = second compound 10 µM, first compound 0.1 µM
[33] = second compound 10 µM, first compound 0.316 µM
[34] = second compound 10 µM, first compound 1 µM
[35] = second compound 10 µM, first compound 3.16 µM
[36] = second compound 10 µM, first compound 10 µM
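Also: spheroids exposed to compounds for seven days before readout.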
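For viability, T/C in this document: 100% = DMSO vehicle control viability.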

`CC1COCCN1c1cc(-c2ccnn2C)c2ccnc(-c3ccn[nH]3)c2n1` (centres undefined) + Cc1cccc(N(C)C(=O)C2C(O)CCN2c2nc(C)cc(C(F)(F)F)c2C#N)c1 showed an IC50 (second compound 0.0316 µM) of 205 nM, an IC50 (second compound 0.1 µM) of 291 nM and an IC50 (second compound 0.316 µM) of 273 nM. For the same compound, the IC50 (second compound 1 µM) was 257 nM, the IC50 (second compound 3.16 µM) was 204 nM and the IC50 (second compound 10 µM) was 334 nM. The viability, T/C [1] was 89.1%, the viability, T/C [2] was 61.4% and the viability, T/C [3] was 43.2%. For the same compound, the viability, T/C [4] was 34%, the viability, T/C [5] was 31.7% and the viability, T/C [6] was 29.4%. It also gave a viability, T/C [7] of 72.7%, a viability, T/C [8] of 59.1% and a viability, T/C [9] of 53.2%. It also gave a viability, T/C [10] of 35.7%, a viability, T/C [11] of 29.9% and a viability, T/C [12] of 34.7%. It also gave a viability, T/C [13] of 83.6%, a viability, T/C [14] of 63.1% and a viability, T/C [15] of 48%. The viability, T/C [16] was 39.3%, the viability, T/C [17] was 32.9% and the viability, T/C [18] was 30.9%. It also gave a viability, T/C [19] of 83.2%, a viability, T/C [20] of 66.1% and a viability, T/C [21] of 48.1%. It also gave a viability, T/C [22] of 32.1%, a viability, T/C [23] of 32.6% and a viability, T/C [24] of 30.3%. The viability, T/C [25] was 72%, the viability, T/C [26] was 60.6% and the viability, T/C [27] was 43.9%. For the same compound, the viability, T/C [28] was 32.9%, the viability, T/C [29] was 33% and the viability, T/C [30] was 30.7%. It also gave a viability, T/C [31] of 96.7%, a viability, T/C [32] of 60% and a viability, T/C [33] of 58.1%. The viability, T/C [34] was 37.9%, the viability, T/C [35] was 38.9% and the viability, T/C [36] was 28.2%.
`CC1COCCN1c1cc(C2(O)CC3CCC(C2)O3)c2cnn(-c3ccn[nH]3)c2n1` (centres undefined) + Cc1cccc(N(C)C(=O)C2C(O)CCN2c2nc(C)cc(C(F)(F)F)c2C#N)c1 gave an IC50 (second compound 0.0316 µM) of 156 nM, an IC50 (second compound 0.1 µM) of 173 nM and an IC50 (second compound 0.316 µM) of 188 nM. For the same compound, the IC50 (second compound 1 µM) was 125 nM, the IC50 (second compound 3.16 µM) was 173 nM and the IC50 (second compound 10 µM) was 215 nM. For the same compound, the viability, T/C [1] was 76.6%, the viability, T/C [2] was 58.4% and the viability, T/C [3] was 35.7%. The viability, T/C [4] was 33.7%, the viability, T/C [5] was 23.9% and the viability, T/C [6] was 23.9%. It also gave a viability, T/C [7] of 80.4%, a viability, T/C [8] of 54.9% and a viability, T/C [9] of 41.2%. The viability, T/C [10] was 37.9%, the viability, T/C [11] was 26.8% and the viability, T/C [12] was 23.2%. It also gave a viability, T/C [13] of 71%, a viability, T/C [14] of 61.2% and a viability, T/C [15] of 38.6%. For the same compound, the viability, T/C [16] was 35.8%, the viability, T/C [17] was 24.2% and the viability, T/C [18] was 24%. It also gave a viability, T/C [19] of 78.6%, a viability, T/C [20] of 48.8% and a viability, T/C [21] of 41.7%. The viability, T/C [22] was 33%, the viability, T/C [23] was 27.9% and the viability, T/C [24] was 23.2%. The viability, T/C [25] was 79.3%, the viability, T/C [26] was 54.9% and the viability, T/C [27] was 44.9%. It also gave a viability, T/C [28] of 31.6%, a viability, T/C [29] of 26.4% and a viability, T/C [30] of 23.4%. It also gave a viability, T/C [31] of 81.5%, a viability, T/C [32] of 60.3% and a viability, T/C [33] of 39.3%. It also gave a viability, T/C [34] of 42.4%, a viability, T/C [35] of 31.4% and a viability, T/C [36] of 23.9%.
